The text below walks through data of patent US20130195926A1, “MODULATION OF NITRIC OXIDE SIGNALING TO NORMALIZE TUMOR VASCULATURE” (The General Hospital Corporation, priority 2007, published 2013).

The test system of one assay is MCaIV tumors. Kind of assay: Intravital microscopy of MCaIV tumors under iNOS inhibition. In kind it is in vivo, mice. Particulars: 1400 W 10 mg/kg/day by osmotic pump vs saline, 7 days. The text has this:
FIGS. 12A-E show the effect of iNOS inhibition in MCaIV tumors and blood vessel morphology and function in MCaIV tumors. (A) Fluorescence immunohistochemistry image of iNOS expression (green), F4/80 positive macrophages (red) and DAPI stained nuclei (blue) in MCaIV tumors grown in the mammary fat pad. The bar indicates 50 μm. (B-C) MPLSM images of MCaIV tumors grown in αSMA^P-GFP mice treated with saline control (B) or an iNOS inhibitor 1400 W (C). Functional blood vessels were contrast-enhanced by i.v. injection of tetramethylrhodamine-dextran (red). αSMA-positive perivascular cells were visualized by GFP fluorescence (green). The bars indicate 100 μm. (D-E) MCaIV tumors grown in αSMAP-GFP mice were treated with saline (control) or iNOS inhibitor (1400 W) for 7 days. (D) Perivascular cell coverage. (N=4, each). (E) Vascular permeability (N=7, each). Data are mean±SEM. *p<0.05 vs. control.
Breast cancer cells in MCaIV murine mammary tumor model express iNOS similar to many human tumors, in contrast to the U87MG glioma model, in which tumor cells predominantly express neuronal NOS (nNOS). MCaIV tumors grown orthotopically in the mammary fat pad express iNOS and to a much lesser extent eNOS as determined by real time RT-PCR. […] Inhibition of iNOS would eliminate the majority of non-vascular NO production. […]

The next assay deals with 10T1/2 cells. Nature of the assay: cGMP production in cultured 10T1/2 cells. In kind it is cell-based. As to conditions: 100 μM. How it is done: FIGS. 13A-C show the role of the NO-sGC-cGMP pathway in perivascular cell recruitment and migration. (A) In bar graph form, cGMP production in cultured 10T1/2 cells in response to NO donor or PDE5 inhibitor. (B) In bar graph form, the migration of 10T1/2 cells in a transwell assay. 10T1/2 cell migration was assessed using Falcon HTS FluoroBlok inserts with 1 μm pores. GFP-expressing 10T1/2 cells were inoculated in the inserts, and HUVECs were inoculated in the outer well. Percent area of transwell filter covered by migrated 10T1/2 cells was determined. Medium only indicates no HUVECs in the outer well. ODQ, T-1032, Sildenafil, or Sildenafil+L-NMMA were added to the medium. *P<0.05 vs. control (HUVEC). (C) Images for transmigrated GFP-10T1/2 cells at the back side of the Fluoroblock insert after 10 hours with control vs. T-1032 treatment.
cGMP levels were examined in 10T1/2 cells following treatments of an NO donor DETANONOate or an inhibitor for phosphodiesterase 5 (PDE5), an enzyme which degrades cGMP.

For assay [1], the system named is U87MG tumors. Kind of assay: Vessel morphology of U87 tumors in the cranial window by intravital microscopy. It is filed as in vivo, mice. As to conditions: L-NPA 20 mg/kg daily i.p. vs saline, cranial window. The procedure:
Recombination activating gene 1 (Rag-1^−/−) mice backcrossed to C57BL/6 background or severe combined immunodeficiency (SCID) mice, bred and maintained in an gnotobiotic animal facility, were used. To obtain source tumor tissue, U87 tumor cells in culture (1×10^6 cells) were injected subcutaneously into Rag-1^−/− or SCID mice matching the recipient mice. When the tumor reached about 8 mm in diameter, it was excised after euthanasia and a small piece (about 1 mm^3) of viable tumor tissue was implanted into a cranial window or subcutaneously into the calf area of the right hindlegs of the mice as previously described (Kashiwagi, S., et al. 2005 J. Clin. Invest. 115, 1816-1827; Kozin, S. V., et al. 2001 Cancer Research 61, 39-44). All animal procedures were carried oat following the Public Health Service Policy on Humane Care of Laboratory Animals and approved by the Institutional Animal Care and Use Committee of Massachusetts General Hospital. […]
(§1) Angiogenesis and vessel morphology were determined in U87 and GL261 tumors grown in the cranial windows by intravital microscopy using multiphoton laserscanning microscopy (MPLSM) or single photon fluorescence microscopy (SPFM) when tumors reached about 7 mm^2. […] Using MPLSM, five locations with 200-μm thick imaging stack were recorded for each tumor. […]
Vascular parameters such as functional vessel density (the total length of perfused microvessels per unit area) and vessel diameter were analyzed by tracing each vessel segment using NIH image 1.63 as described elsewhere (Kashiwagi, S., et al. 2005 J. Clin. Invest. 115, 1816-1827). Tissue distribution of NO was visualized using MPLSM and the NO-sensitive fluorescence probe 4,5-diaminofluorescein (DAF-2) (0.5 mg i.v. Daiichi Pure Chemicals Co. Ltd) as described previously (Kashiwagi, S., et al. 2005 J. Clin. Invest. 115, 1816-1827). NO converts DAF-2 to 4,5-diaminofluorescein triazolium (DAF-2T) increasing fluorescence by a factor of 200. The DAF-2 associated fluorescence images were captured 60 min after i.v. injection. […]

Assay [2] relates to U87MG tumors. Nature of the assay: Microvascular permeability of U87 tumors by intravital microscopy with tetramethylrhodamine-BSA. It is filed as in vivo, mice. Particulars: L-NPA 20 mg/kg daily i.p. vs saline, cranial window. The procedure:
To lower NO production from all NOS isoforms in the gliomas, mice received a pan-NOS inhibitor NG-Monomethyl-L-arginine monoacetate (L-NMMA) (Alexis Corp.) or non-active control compound D-NMMA (Alexis Corp.) at the rate of 7 mg/day by a constant release micro-osmotic pump (Model 1002, Alzet Osmotic Pumps, Durect Corp.) (Kashiwagi, S., et al. 2005 J. Clin. Invest. 115, 1816-1827). The micro-osmotic pumps were implanted in the back of the animals one day before the implantation of tumors. […]
The effective vascular permeability (P) was determined by SPFM as described previously (Fukumura, D., et al. 2001 Proc Natl Acad Sci USA 98, 2604-2609). In brief, the fluorescence intensity of the tumor tissue was intermittently measured for 20 min after the injection of tetramethylrhodamine-labeled bovine serum albumin (10 mg/ml, 0.1 ml per 25 g body weight). Permeability was calculated as P=(1−HT) V/S [1/(I0−Ib)*dI/dt+1/K], where I is the average fluorescence intensity of the whole image, I0 is the initial fluorescence intensity, and Ib is the background fluorescence intensity, HT is hematocrit, V and S are the total volume and surface area of vessels within the tissue volume covered by the surface image, respectively, and K is the time constant of BSA plasma clearance (Fukumura, D., et al. 2001 Proc Natl Acad Sci USA 98, 2604-2609).

The subject of another assay is GL261 tumors. Kind of assay: Vessel morphology and function of GL261 tumors in the cranial window. In kind it is in vivo. As to conditions: L-NPA vs saline, SCID mice. The procedure:
FIGS. 7A-E show NOS expression in GL261 tumors and the effect of an nNOS selective inhibitor on vessel morphology and function in GL261 tumors. (A) NOS expression in GL261 tumors grown in the cranial window in SCID mice. Five micron paraffin block sections were immunostained using antibodies to eNOS, nNOS, iNOS or non-specific mouse IgG. The bar indicates 100 μm. Different from U87MG tumors, GL261 tumor cells express all three isoforms of NOS, especially strong expression of eNOS. (B) MPLSM microangiographies of GL261 tumors treated with saline and L-NPA. The bar indicates 200 μm. (C-D) Quantification of 3-D vessel density (C) and diameter (D) using MPLSM image stack and an automated image analysis system. N=6 each. (E) Microvascular permeability in GL261 tumors treated with saline (N=6) and L-NPA (N=6) was measured by intravital microscopy using tetramethylrhodamine-BSA. […]
as §1
The effective vascular permeability (P) was determined by SPFM as described previously (Fukumura, D., et al. 2001 Proc Natl Acad Sci USA 98, 2604-2609). […]

Entries after “also recorded” stand apart in the source; their conditions may differ.

Consider `CC(=N)NCc1cccc(CN)c1` [1400 W, N-(3-(Aminomethyl)benzyl) acetamidine], for which the vascular permeability entry in the assay with MCaIV tumors is “significantly lower”. Moreover, the perivascular cell coverage result in the assay with MCaIV tumors (αSMAP-GFP mice) is reported as “significantly increased”.
In the case of `NCCN(CCN)/[N+]([O-])=N/O` [DETANONOate], in the assay on 10T1/2 cells, the cGMP level result is recorded as “increased”.
For the compound `CCCN=C(N)NCCC[C@H](N)C(=O)O` [L-NPA, NG propyl-L-arginine], the vessel density result in the assay on U87MG tumors [1] is given as “increased”. The vascular permeability result with U87MG tumors [2] is recorded as “decreased”. The “tumor vasculature (vessel morphology and function)” value in the assay on GL261 tumors is reported as “did not improve; also recorded: did not alter”.
